Test results published in paper PMC9962735, “Synthesis and Cytotoxic Activity of the Derivatives of N-(Purin-6-yl)aminopolymethylene Carboxylic Acids and Related Compounds” (Molecules, 2023).

What was measured:
COLO201 cells = assay: Cell cycle analysis by flow cytometry (propidium iodide), COLO201; assay type: cell-based, human; conditions: for Cell proliferation index (%) / Number of cells (%) in cell cycle phase G0/G1 / Number of cells (%) in cell cycle phase G2M / Number of cells (%) in cell cycle phase S: 24 h, M ± SD (n = 3)
Experimental: (§1) To study the potential cytostatic effect of compound 1d, we chose the method of cell cycle analysis using flow cytometry by DNA staining with propidium iodide.
(§2) To analyze possible effects on the cell cycle, we tested three concentrations of compound 1d, which were close to CC50 calculated on the basis of viability assessment data (MTT assay).
(§3) Cell cycle analysis was performed by flow cytometry by staining DNA with propidium iodide (PI). For this, cells were seeded into 6-well plates: 2 × 10^5 COLO201 cells per well and 1.2 × 10^5 MDA-MB-231 cells per well. […] The final concentration of DMSO in the culture medium was 0.1%; an equivalent volume was added to the control cells. The plates were incubated for 24 h in a CO2 incubator. Then, cells were detached from the plastic surface using TrypLE, washed with PBS, and fixed with 70% ethanol. Next, the cells were incubated for 1 h in the dark at 4 °C, then sedimented by centrifugation at 184× g for 10 min, and washed twice with PBS. PBS (0.3 mL) containing 0.1% Triton X-100, 1 µg/mL PI, and 0.2 mg/mL RNAse A was added to the pellet, incubated for 30 min at room temperature in the dark, and analyzed on a CytoFlex flow cytometer (Beckman Coulter, Brea, CA, USA).
(§4) The cell population in the test sample was found and gated on forward versus side scatter (FSC-A vs. SSC-A). Next, doublets were discriminated and removed via PI signal height versus PI signal area (PI-H vs. PI-A). For cell cycle phases analysis, PI-A was plotted against number of events (number of cells) (PI-A vs. Count).
(§5) The flow cytometry data were processed using the Kaluza Analysis 2.1 software (Beckman Coulter, Brea, CA, USA). Percentages of cell populations distributed in the various phases of the cell cycle (sub-G1, G0/G1, S, and G2M) were calculated. The result was considered significant if the coefficient of variation (CV) was less than 6.

MDA-MB-231 cells = assay: Cell cycle analysis by flow cytometry (propidium iodide), MDA-MB-231; assay type: cell-based, human; conditions: 24 h; for Cell proliferation index (%) / Number of cells (%) in cell cycle phase G0/G1 / Number of cells (%) in cell cycle phase G2M / Number of cells (%) in cell cycle phase S: M ± SD (n = 3)
Experimental: as §1, §2, §3, §4, §5

Vero E6 cells = system: Vero E6 cells; parameters: method as in doi:10.1007/s10593-021-02929-z; conditions: cited from earlier work

CC1COc2c(ccc(F)c2F)N1C(=O)CCCCCCCCCCNc1ncnc2[nH]cnc12 (stereo not shown) [Compound 1d]
Cell proliferation index (%) (COLO201 cells; COLO201, 0.9×10–6 M): 37.05% | Number of cells (%) in cell cycle phase G0/G1 (COLO201 cells; COLO201, 0.9×10–6 M): 62.95% | Number of cells (%) in cell cycle phase G2M (COLO201 cells; COLO201, 0.9×10–6 M): 15.70% | Number of cells (%) in cell cycle phase S (COLO201 cells; COLO201, 0.9×10–6 M): 21.35% | Cell proliferation index (%) (COLO201 cells; COLO201, 1×10–6 M): 36.78±0.29% | Number of cells (%) in cell cycle phase G0/G1 (COLO201 cells; COLO201, 1×10–6 M): 63.21% | Number of cells (%) in cell cycle phase G2M (COLO201 cells; COLO201, 1×10–6 M): 15.41±0.74% | Number of cells (%) in cell cycle phase S (COLO201 cells; COLO201, 1×10–6 M): 21.38% | Cell proliferation index (%) (COLO201 cells; COLO201, 2×10–6 M): 35.35% | Number of cells (%) in cell cycle phase G0/G1 (COLO201 cells; COLO201, 2×10–6 M): 64.60% | Number of cells (%) in cell cycle phase G2M (COLO201 cells; COLO201, 2×10–6 M): 16.84% | Number of cells (%) in cell cycle phase S (COLO201 cells; COLO201, 2×10–6 M): 18.51% | cell cycle arrest phase (COLO201 cells; COLO201, concentrations close to CC50, 24 h): cell cycle arrest occurred in the G2/M phase | cell proliferation index (COLO201 cells; COLO201, concentrations close to CC50, 24 h, range over the concentrations): 35–37% | Cell proliferation index (%) (MDA-MB-231 cells; MDA-MB-231, 10×10–6 M): 39.08% | Number of cells (%) in cell cycle phase G0/G1 (MDA-MB-231 cells; MDA-MB-231, 10×10–6 M): 60.92% | Number of cells (%) in cell cycle phase G2M (MDA-MB-231 cells; MDA-MB-231, 10×10–6 M): 13.74% | Number of cells (%) in cell cycle phase S (MDA-MB-231 cells; MDA-MB-231, 10×10–6 M): 25.33% | Cell proliferation index (%) (MDA-MB-231 cells; MDA-MB-231, 20×10–6 M): 37.57% | Number of cells (%) in cell cycle phase G0/G1 (MDA-MB-231 cells; MDA-MB-231, 20×10–6 M): 62.13% | Number of cells (%) in cell cycle phase G2M (MDA-MB-231 cells; MDA-MB-231, 20×10–6 M): 17.05% | Number of cells (%) in cell cycle phase S (MDA-MB-231 cells; MDA-MB-231, 20×10–6 M): 20.52% | Cell proliferation index (%) (MDA-MB-231 cells; MDA-MB-231, 30×10–6 M): 40.63% | Number of cells (%) in cell cycle phase G0/G1 (MDA-MB-231 cells; MDA-MB-231, 30×10–6 M): 59.37% | Number of cells (%) in cell cycle phase G2M (MDA-MB-231 cells; MDA-MB-231, 30×10–6 M): 27.49% | Number of cells (%) in cell cycle phase S (MDA-MB-231 cells; MDA-MB-231, 30×10–6 M): 13.13% | cell cycle arrest phase (MDA-MB-231 cells; MDA-MB-231, entire range of concentrations studied): arrest of the cell cycle in the G0/G1 phase | concentration which caused the death of 50% Vero E6 cells (Vero E6 cells): less than 30 µM
